This assay relates to Aerobic Bacteria. The experiment in a line: Disinfection of sugar liquor by ozonation, aerobic bacteria count. The method, then:
In the laboratory, tests were performed on refinery liquors at Brix 66 to 70 and color between 60 and 300 Icumsa units (the color of sugar liquors is expressed in Icumsa units following the specific and standardized methodology well known in the sugar industry). A laboratory model generator was used to pass ozone into a batch reactor. The ozone generator was operating on a pure feed gas and it produced 40 g/h of ozone at 5% concentration. Two mixer reactors were used, the first one operating at 800 rpm under a pressure of 60 psig with 2L capacity and the second one operating at atmospheric pressure and 1200 rpm with 10 L capacity. A series of tests were carried out with different types of liquors and the treated sugar was characterized in terms of color, turbidity, pH, saccharose degradation, toxicity and disinfection. The following examples present results of experiments performed in different ozonation conditions with different types of liquors. A 184 Icumsa color units liquor was treated with 200 mg/L of ozone during 8 min using the pressurized reactor. A low color liquor, 64 Icumsa units was treated in the atmospheric pressure reactor under two different ozonation conditions. The following table presents the results of microbiological analyses.

Take `O=[O+][O-]` [ozone]: for the setting “Example 6: 200 mg/L ozone, 8 min”, the “reduction of number of total bacteria after ozonation” value came out at 95%. Further, the reduction of bacteria (Example 7: 200 mg/l ozone) amounted to 89%. Further, the disinfection result (Example 7: 400 mg/L of ozone) is recorded as “complete disinfection”.

The record behind these values is US6368413B1, “Process for preparing improved sugar product” (Praxair Technology, Inc., priority 2000, dated 2002).
